The structures appear in SMILES notation. Read-outs that look alike come from different tables or passages of the source.

We go through 15 compounds from US8013153B2, “Substituted pyrimidine kinase inhibitors” (Janssen Pharmaceutica, N.V., priority 2006, dated 2011).

One assay has as its target T1, CDK1:Cyclin-B (Homo sapiens, UniProt P06493).
T1 construct: purchased New England Biolabs, Beverly, Mass; 6020; host or cells: insect cells
As to the kind of experiment: CDK1 Screening Assay. Format: biochemical.

Assay [1] deals with T2, rat VEGF-R2 kinase domain (Rattus norvegicus, UniProt O08775).
T2 construct: amino acids 786-1343 of the rat VEGF-R2 kinase domain; polyhistidine (N)
T2 sequence (O08775 786-1343): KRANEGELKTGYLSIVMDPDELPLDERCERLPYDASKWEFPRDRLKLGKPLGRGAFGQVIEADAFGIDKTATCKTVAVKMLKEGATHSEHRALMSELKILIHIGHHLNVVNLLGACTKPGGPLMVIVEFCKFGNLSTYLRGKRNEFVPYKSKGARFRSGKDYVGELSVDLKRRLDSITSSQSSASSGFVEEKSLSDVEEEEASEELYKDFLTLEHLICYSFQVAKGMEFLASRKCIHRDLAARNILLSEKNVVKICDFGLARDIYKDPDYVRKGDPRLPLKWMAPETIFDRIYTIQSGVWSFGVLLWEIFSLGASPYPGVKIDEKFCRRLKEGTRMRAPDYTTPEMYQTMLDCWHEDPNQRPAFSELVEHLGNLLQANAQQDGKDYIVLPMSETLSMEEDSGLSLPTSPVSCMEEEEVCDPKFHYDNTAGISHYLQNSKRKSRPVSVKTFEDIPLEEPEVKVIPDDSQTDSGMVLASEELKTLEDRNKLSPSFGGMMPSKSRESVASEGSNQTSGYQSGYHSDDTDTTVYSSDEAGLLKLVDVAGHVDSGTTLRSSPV
The assay is described as follows: VEGF-R2 Screening Assay. The assay is classed as biochemical.

In another assay the target is T3, murine Aurora-A (Mus musculus, UniProt P97477).
T3 construct: replaced with the full length protein encoding the murine Aurora-A; made in house; host or cells: sf9 insect cells
T3 sequence (P97477 1-395): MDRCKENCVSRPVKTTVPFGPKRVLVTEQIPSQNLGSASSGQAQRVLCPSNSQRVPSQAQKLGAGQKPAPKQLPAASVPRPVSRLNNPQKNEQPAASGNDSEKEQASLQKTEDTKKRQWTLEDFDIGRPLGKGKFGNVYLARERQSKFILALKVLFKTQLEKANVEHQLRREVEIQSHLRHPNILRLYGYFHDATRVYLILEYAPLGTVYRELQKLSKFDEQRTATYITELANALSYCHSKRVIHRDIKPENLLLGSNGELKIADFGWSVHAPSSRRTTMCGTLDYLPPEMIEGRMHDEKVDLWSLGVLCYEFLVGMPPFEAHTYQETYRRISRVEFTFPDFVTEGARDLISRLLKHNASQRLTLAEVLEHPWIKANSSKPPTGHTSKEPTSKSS
The assay is described as follows: Aurora-A Screening Assay. Format: biochemical.

Another assay deals with T4, HER2 cytoplasmic domain (Homo sapiens, UniProt P04626).
T4 construct: polyhistidine (N)
T4 sequence (P04626 676-1255 limits assumed): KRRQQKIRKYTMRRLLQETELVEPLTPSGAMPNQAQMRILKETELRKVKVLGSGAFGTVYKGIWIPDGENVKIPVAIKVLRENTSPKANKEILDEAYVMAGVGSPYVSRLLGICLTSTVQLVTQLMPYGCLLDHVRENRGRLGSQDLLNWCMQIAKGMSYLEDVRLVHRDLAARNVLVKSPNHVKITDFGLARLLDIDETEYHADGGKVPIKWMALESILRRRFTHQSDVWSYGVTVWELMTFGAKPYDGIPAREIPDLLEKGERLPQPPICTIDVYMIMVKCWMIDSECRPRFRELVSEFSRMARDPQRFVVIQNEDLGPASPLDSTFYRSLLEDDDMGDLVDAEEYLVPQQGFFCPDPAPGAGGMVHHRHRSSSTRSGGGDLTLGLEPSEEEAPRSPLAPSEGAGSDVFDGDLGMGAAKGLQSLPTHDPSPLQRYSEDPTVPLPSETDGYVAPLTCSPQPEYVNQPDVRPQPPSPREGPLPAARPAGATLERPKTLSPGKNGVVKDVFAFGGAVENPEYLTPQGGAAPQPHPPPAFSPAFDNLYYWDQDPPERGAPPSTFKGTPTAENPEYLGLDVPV
As to the kind of experiment: HER2 Kinase Screening Assay. The note with it: > means no observed 50% inhibition at the indicated test concentration; ~ means approximately 50% inhibition at that concentration. Format: biochemical.

For assay [2], the system named is HeLa cervical adenocarcinoma. As to the kind of experiment: Inhibition of in vitro cell proliferation (HeLa).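 Note: cells exposed to compound for 24 h, then labelled 24 h with methyl 14C-thymidine, with uptake into DNA counted by scintillation against DMSO-only control wells.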 Format: cell-based, human. To be noted: Homo sapiens, 14C-thymidine incorporation. On the technique in general: Incorporation of labelled thymidine or its analogues reports DNA synthesis.
The subject of the next assay is HCT-116 colon carcinoma. The assay is described as follows: Inhibition of in vitro cell proliferation (HCT116).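 Note: cells exposed to compound for 24 h, then 14C-thymidine added for a further 24 h and its uptake into DNA counted by scintillation, DMSO-only wells as control.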 The note with it: Homo sapiens, HCT-116, 14C-thymidine incorporation. The assay is classed as cell-based, human.
Another assay concerns A375 malignant melanoma. As to the kind of experiment: Inhibition of in vitro cell proliferation (A375).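 Note: cells plated for 24 h, given compound for 24 h, then labelled with 14C-thymidine for another 24 h, with DMSO-only wells as control and counts read by scintillation.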 The assay is classed as cell-based, human. The note with it: Homo sapiens, A-375, 14C-thymidine incorporation.
Where [3] appears, read: > means no observed 50% inhibition at the indicated test concentration, ~ means approximately 50% inhibition at that concentration, read-out: IC50 VEGF-R2.

T1 sequence (P06493 whole entry): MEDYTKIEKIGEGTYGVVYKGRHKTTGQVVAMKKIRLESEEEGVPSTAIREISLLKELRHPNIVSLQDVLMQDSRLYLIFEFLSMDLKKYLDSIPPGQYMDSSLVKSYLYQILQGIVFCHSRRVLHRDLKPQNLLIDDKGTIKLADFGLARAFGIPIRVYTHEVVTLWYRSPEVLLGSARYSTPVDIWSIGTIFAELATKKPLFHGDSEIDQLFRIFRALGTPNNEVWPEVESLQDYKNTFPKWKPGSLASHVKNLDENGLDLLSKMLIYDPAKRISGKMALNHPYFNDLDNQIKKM
T1 sequence (P14635 whole entry partner): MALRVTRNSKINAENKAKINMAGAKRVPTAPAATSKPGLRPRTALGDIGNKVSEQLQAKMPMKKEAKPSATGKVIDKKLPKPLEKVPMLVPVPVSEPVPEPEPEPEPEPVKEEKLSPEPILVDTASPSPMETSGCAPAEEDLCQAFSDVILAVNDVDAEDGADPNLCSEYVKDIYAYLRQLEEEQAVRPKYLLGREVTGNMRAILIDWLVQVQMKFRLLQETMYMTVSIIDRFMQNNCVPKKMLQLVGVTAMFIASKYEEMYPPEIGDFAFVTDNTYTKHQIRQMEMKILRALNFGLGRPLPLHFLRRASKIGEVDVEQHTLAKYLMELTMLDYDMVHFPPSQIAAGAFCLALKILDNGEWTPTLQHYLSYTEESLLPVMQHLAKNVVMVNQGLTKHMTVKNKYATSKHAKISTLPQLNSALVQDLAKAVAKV

Usually IC50 stands for the midpoint of a concentration-inhibition curve. With `CNC(=O)Nc1ccc(Oc2ncnc(N)c2C=NOC)cc1F` [Cpd 72, 1-{4-[6-amino-5-(methoxyimino-methyl)-pyrimidin-4-yloxy]-2-fluoro-phenyl}-3-methyl-urea], the half-maximal inhibitory concentration (IC50) against CDK1:Cyclin-B was > 100 µM; in assay [1] (setting [3]), 0.142 µM; against murine Aurora-A, > 100 µM; on HER2 cytoplasmic domain, > 10 µM; in assay [2], > 10 µM; with HCT-116 colon carcinoma, > 10 µM. The IC50 in the assay on A375 malignant melanoma is > 10 µM.
Regarding `CNC(=O)Nc1ccc(Oc2ncnc(N)c2C=NOC)cc1Br` [Cpd 73, 1-{4-[6-amino-5-(methoxyimino-methyl)-pyrimidin-4-yloxy]-2-bromo-phenyl}-3-methyl-urea], the IC50 against CDK1:Cyclin-B is > 10 µM; in assay [1] (setting [3]), > 100 µM; against murine Aurora-A, > 10 µM; at HER2 cytoplasmic domain it was > 1 µM; in assay [2], > 10 µM; in the assay on HCT-116 colon carcinoma, > 10 µM. For the same compound, the half-maximal inhibitory concentration (IC50) in the assay with A375 malignant melanoma was > 10 µM.
On to `CON=Cc1c(N)ncnc1Oc1ccc(NC(=O)Nc2ccc(F)cc2)c(Br)c1` [Cpd 74, 1-{4-[6-amino-5-(methoxyimino-methyl)-pyrimidin-4-yloxy]-2-bromo-phenyl}-3-(4-fluoro-phenyl)-urea], for which the IC50 against CDK1:Cyclin-B is > 100 µM; in assay [1] (setting [3]), ~100 µM; against murine Aurora-A, > 100 µM; against HER2 cytoplasmic domain it was > 1 µM; in assay [2], > 100 µM; with HCT-116 colon carcinoma, > 100 µM. The IC50 in the assay with A375 malignant melanoma was > 10 µM.
`CON=Cc1c(N)ncnc1Oc1ccc(NC(=O)Nc2ccccc2C)c(Cl)c1` [Cpd 75, 1-{4-[6-amino-5-(methoxyimino-methyl)-pyrimidin-4-yloxy]-2-chloro-phenyl}-3-o-tolyl-urea]: the IC50 against CDK1:Cyclin-B was > 100 µM; in assay [1] (setting [3]) it was 0.0079 µM; against murine Aurora-A, > 100 µM; on HER2 cytoplasmic domain it was > 100 µM; in assay [2], > 100 µM; in the assay on HCT-116 colon carcinoma, > 100 µM. Also, in the assay with A375 malignant melanoma, the IC50 was > 100 µM.
`CON=Cc1c(N)ncnc1Oc1ccc(NC(=O)Nc2cccc(C)c2)c(Cl)c1` [Cpd 76, 1-{4-[6-amino-5-(methoxyimino-methyl)-pyrimidin-4-yloxy]-2-chloro-phenyl}-3-m-tolyl-urea]: the IC50 on CDK1:Cyclin-B is > 100 µM; in assay [1] (setting [3]), 0.002 µM; against murine Aurora-A, > 100 µM; on HER2 cytoplasmic domain, > 10 µM; in assay [2], > 10 µM; in the assay on HCT-116 colon carcinoma it was > 10 µM. Besides, the IC50 in the assay on A375 malignant melanoma was > 10 µM.
As to `CON=Cc1c(N)ncnc1Oc1ccc(NC(=O)Nc2ccc(C)cc2)c(Cl)c1` [Cpd 77, 1-{4-[6-amino-5-(methoxyimino-methyl)-pyrimidin-4-yloxy]-2-chloro-phenyl}-3-p-tolyl-urea], the IC50 against CDK1:Cyclin-B is > 100 µM; in assay [1] (setting [3]), 0.0016 µM; on murine Aurora-A, > 100 µM; on HER2 cytoplasmic domain, > 100 µM; in assay [2] it was > 100 µM; with HCT-116 colon carcinoma, > 100 µM. Besides, the IC50 with A375 malignant melanoma is > 100 µM.
Regarding `CON=Cc1c(N)ncnc1Oc1ccc(NC(=O)NCc2ccc(F)cc2F)c(Cl)c1` [Cpd 78, 1-{4-[6-amino-5-(methoxyimino-methyl)-pyrimidin-4-yloxy]-2-chloro-phenyl}-3-(2,4-difluoro-benzyl)-urea], the IC50 at CDK1:Cyclin-B is > 100 µM; in assay [1] (setting [3]) it was 0.0103 µM; at murine Aurora-A, > 100 µM; against HER2 cytoplasmic domain it was > 100 µM; in assay [2], > 100 µM; in the assay with HCT-116 colon carcinoma, > 100 µM. Also, in the assay on A375 malignant melanoma, the IC50 is > 100 µM.
As to `C#CCNC(=O)Nc1ccc(Oc2ncnc(N)c2C=NOC)cc1Cl` [Cpd 79, 1-{4-[6-amino-5-(methoxyimino-methyl)-pyrimidin-4-yloxy]-2-chloro-phenyl}-3-prop-2-ynyl-urea], the IC50 against CDK1:Cyclin-B was > 100 µM; in assay [1] (setting [3]) it was 0.0275 µM; against murine Aurora-A, > 100 µM; against HER2 cytoplasmic domain it was > 100 µM; in assay [2], 3.58 µM; in the assay with HCT-116 colon carcinoma, 3.72 µM. For the same compound, the IC50 in the assay with A375 malignant melanoma was 2.2 µM.
For `CON=Cc1c(N)ncnc1Oc1ccc(NC(=O)NC(C)C)c(Cl)c1` [Cpd 80, 1-{4-[6-amino-5-(methoxyimino-methyl)-pyrimidin-4-yloxy]-2-chloro-phenyl}-3-isopropyl-urea], the IC50 is > 100 µM against CDK1:Cyclin-B; 0.0729 µM in assay [1] (setting [3]); > 10 µM on murine Aurora-A; > 10 µM on HER2 cytoplasmic domain; > 10 µM in assay [2]; > 10 µM with HCT-116 colon carcinoma. The IC50 in the assay on A375 malignant melanoma was > 1 µM.
Take `CON=Cc1c(N)ncnc1Oc1ccc(NC(=O)NCCO)c(Cl)c1` [Cpd 81, 1-{4-[6-amino-5-(methoxyimino-methyl)-pyrimidin-4-yloxy]-2-chloro-phenyl}-3-(2-hydroxy-ethyl)-urea]: the IC50 is > 100 µM on CDK1:Cyclin-B; 0.168 µM in assay [1] (setting [3]); > 100 µM against murine Aurora-A; > 100 µM on HER2 cytoplasmic domain; 4.27 µM in assay [2]; 4.06 µM in the assay with HCT-116 colon carcinoma. In the assay with A375 malignant melanoma, the concentration for half-maximal inhibition (IC50) was 3.91 µM.
As for `CON=Cc1c(N)ncnc1Oc1ccc(NC(=O)NCCN(C)C)c(Cl)c1` [Cpd 82, 1-{4-[6-amino-5-(methoxyimino-methyl)-pyrimidin-4-yloxy]-2-chloro-phenyl}-3-(2-dimethylamino-ethyl)-urea], the IC50 is > 100 µM against CDK1:Cyclin-B; 0.285 µM in assay [1] (setting [3]); > 100 µM on murine Aurora-A; > 10 µM on HER2 cytoplasmic domain; > 10 µM in assay [2]; > 10 µM in the assay with HCT-116 colon carcinoma. Also, the IC50 with A375 malignant melanoma is > 10 µM.
For `CON=Cc1c(N)ncnc1Oc1ccc(NC(=O)NCCCO)c(Cl)c1` [Cpd 83, 1-{4-[6-amino-5-(methoxyimino-methyl)-pyrimidin-4-yloxy]-2-chloro-phenyl}-3-(3-hydroxy-propyl)-urea], the IC50 against CDK1:Cyclin-B is > 100 µM; in assay [1] (IC50 VEGF-R2), 0.4 µM; against murine Aurora-A, > 100 µM; on HER2 cytoplasmic domain, > 10 µM; in assay [2], 4.18 µM; in the assay with HCT-116 colon carcinoma, 3.78 µM. In the assay on A375 malignant melanoma, this compound had an IC50 of 3.94 µM.
Turning to `CON=Cc1c(N)ncnc1Oc1ccc(NC(=O)NCCCCN2CCCC2)c(Cl)c1` [Cpd 84, 1-{4-[6-amino-5-(methoxyimino-methyl)-pyrimidin-4-yloxy]-2-chloro-phenyl}-3-(4-pyrrolidin-1-yl-butyl)-urea], the IC50 on CDK1:Cyclin-B was > 100 µM; in assay [1] (setting [3]), 0.759 µM; against murine Aurora-A, > 10 µM; on HER2 cytoplasmic domain, > 10 µM; in assay [2], > 10 µM; with HCT-116 colon carcinoma it was > 10 µM. The IC50 in the assay on A375 malignant melanoma is > 1 µM.
Regarding `CON=Cc1c(N)ncnc1Oc1ccc(NC(=O)NC2CC2)c(Cl)c1` [Cpd 85, 1-{4-[6-amino-5-(methoxyimino-methyl)-pyrimidin-4-yloxy]-2-chloro-phenyl}-3-cyclopropyl-urea], the 50% inhibitory concentration (IC50) was > 100 µM against CDK1:Cyclin-B; 0.029 µM in assay [1] (setting [3]); > 100 µM against murine Aurora-A; > 100 µM against HER2 cytoplasmic domain; > 100 µM in assay [2]; > 100 µM in the assay on HCT-116 colon carcinoma. For the same compound, the IC50 in the assay with A375 malignant melanoma is > 10 µM.
As for `CON=Cc1c(N)ncnc1Oc1ccc(NC(=O)Nc2ccccn2)c(Cl)c1` [Cpd 86, 1-{4-[6-amino-5-(methoxyimino-methyl)-pyrimidin-4-yloxy]-2-chloro-phenyl}-3-pyridin-2-yl-urea], the IC50 at CDK1:Cyclin-B was > 100 µM; in assay [1] (setting [3]) it was 0.034 µM; against murine Aurora-A, > 100 µM; on HER2 cytoplasmic domain, > 100 µM; in assay [2], > 10 µM; with HCT-116 colon carcinoma, > 10 µM. In the assay on A375 malignant melanoma, this compound registered a half-inhibitory concentration (IC50) of 6.25 µM.
